Experiments:
neural stem cells = experiment: Cytotoxicity of the method of introduction into cells; assay type: cell-based
From the text: It became clear from this that VHL (157–171) has an activity of inducing neuronal differentiation.

[1] = tested on: neural stem cells derived from the adult rat hippocampus; experiment: VHL oligopeptide introduced in vitro into neural stem cells using BioPORTER Reagent; assay type: cell-based; conditions: for morphological change compared with control group: 8 hours after introduction
Experimental: The oligopeptide prepared according to the above-described method was introduced in vitro into neural stem cells derived from the adult rat hippocampus at a concentration of 10–1000 ng/ml using BioPORTER Reagent (BioPORTER protein delivery reagent: Gene Therapy Systems, Inc., San Diego, Calif., U.S.A.). […] When this was immunofluorescence stained at a concentration of 100 ng/mL 24 hours after introduction, it was confirmed that 72% of them was differentiated into neurons, and 12% was differentiated into neuroglia cells (FIG. 4). Thereby, it was clarified that VHL could induce neuronal differentiation even by the method of peptide introduction not by introduction of gene.

Parkinson's model rat [2] = experiment: Apomorphine induced rotation after grafting of VHL peptide-introduced neural stem cells; assay type: in vivo; conditions: after two months; 10^5 peptide-introduced neural stem cells grafted to striatum
Experimental: (§1) Next, it was studied whether the symptom could be improved by grafting of neural stem cells into which VHL (157–171) oligopeptide was introduced within the central nervous system of a nerve disease animal. Parkinson's model rat as a nerve disease animal was prepared by injection of microdose of 6-hydroxydopamine into brain of rat and depletion of unilateral dopamine producing cells. Two weeks later, apomorphine induced rotation was studied and rat rotating not less than 7 times per one minute was determined as Parkinson's disease model. 10^5 neural stem cells into which VHL (157–171) oligopeptide was introduced were grafted to striatum of cerebrum of rat. After grafting, apomorphine induced rotation was determined every week. […] As behavior analysis, paw reaching test (a test wherein an ability to eat pellets placed on stairs by extending one side injured leg is studied.) was conducted and […] (FIG. 6).

Parkinson's model rat [3] = experiment: Paw reaching test after grafting of VHL peptide-introduced neural stem cells; assay type: in vivo; conditions: peptide-introduced neural stem cells grafted to striatum
Experimental: as §1

[4] = tested on: Parkinson's disease model rat; experiment: Pathological and histological study of the brain after grafting; assay type: in vivo; conditions: peptide-introduced neural stem cells grafted to striatum
Experimental: as §1

skin stem cells = experiment: Induction of differentiation of skin stem cells by VHL protein (FIG. 1); assay type: cell-based; conditions: neurofilament positive neuron
From the text: FIG. 1 is a fluorescence photomicrograph showing induction of differentiation of skin stem cell into neurofilament positive neuron.
A VHL gene, which is the causative gene of von Hippel-Lindau disease, a hereditary disease causing brain tumor (hemangioblastoma) or renal cancer, is a kind of a tumor suppressor gene. This gene was isolated from human chromosome 3 by Dr. Zbar et al.'s group (U.S.A.) in 1993. It has been reported that the VHL gene and the protein are expressed in neurons. However, the function of this gene in the nervous system was unknown. We considered that the gene may be involved in the formation of the nervous system at fetal developmental stages and studied differentiation over time of neural stem cells isolated from a rat fetal brain. […] As a result, when VHL gene is introduced to express VHL protein, neural stem cells are differentiated into neurons. Thus, it was clarified that VHL protein has a function to induce differentiation of nerves.

[5] = 100 ng/mL, 24 hours after introduction, BioPORTER Reagent

## Ac-TLKERCLQVVRSLVKKKWKMRRNQFWVKVQRGK-NH2 [VHL (157–171)-ANT]
Neural stem cells
  cytotoxicity: does not show cytotoxicity

## TLKERCLQVVRSLVK [VHL (157–171) oligopeptide]
[1]; [5]
  cells differentiated into neuroglia cells (immunofluorescence staining): 12%
  cells differentiated into neurons (immunofluorescence staining): 72%
[1]; BioPORTER Reagent
  morphological change compared with control group: more marked as compared with the control group
[1]; BioPORTER Reagent, listed as VHL peptide
  morphological change compared with control group: marked as compared with control group
[1]; after 4 hours, introduced at 10–1000 ng/ml using BioPORTER Reagent
  concentration at which neural stem cells showed inclination to differentiate to neuron morphologically, elongation of neural spine observed: not less than 10 ng/ml
Parkinson's model rat [2]
  rats showing zero of apomorphine induced rotation: about 30%
Parkinson's model rat [3]
  behavior analysis (paw reaching test, apomorphine induced rotation) compared with control group: significant improvement
[4]
  grafted cells taken within the brain: about 70%
  type of the grafted cells taken within the brain: most of them were neurofilament positive neurons
[4]; listed as VHL gene
  type of the grafted cells taken within the brain: most of them are neuronal filaments

## VHL protein: von Hippel-Lindau protein consisting of 213 full length amino acids
Skin stem cells
  differentiation of skin stem cells into neurons: induces differentiation of skin stem cells into neurons

— patent US7214767B2, “VHL peptide” (Hiroshi Kanno, priority 2005, dated 2007)
